Test in all cases: DTP human tumour cell line panel, 48 h
The subject of assay [1] is KM20L2 colon.
In assay [2] the test system is RXF-631 renal.
Assay [3] deals with DLD-1 colon.
Assay [4] relates to HOP-18 NSCLC.
Assay [5] deals with LXFL 529 NSCLC.
Assay [6] deals with DMS 114 small cell lung.
The test system of assay [7] is XF 498 CNS.
The subject of assay [8] is DMS 273 small cell lung.
Assay [9] relates to MDA-N.

In brackets after ≈: the same amount, converted by molar mass. Several values for one entry are separate records, joined by “and”; a condition that tells them apart may be missing. Identical values can stand only once.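 Growth conditions: 96-well plates. Treatment: test compound, 48 hours, 5 concentrations. Analysis: linear interpolation between bracketing concentrations; unreached endpoints set to highest concentration. GI50 = concentration required for 50% inhibition of growth. Definition used: TGI = concentration required for complete inhibition of growth.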

The term TGI denotes the concentration at which net growth stops. Low values mean more potent growth arrest, high ones less potent growth arrest. As for `O=C1C(c2ccc(Cl)cc2)=[N+]([O-])c2ccccc21`, the TGI was determined as 52.1 µM in [1]; 48.4 µM in assay [2]; 30.1 µM in [3]; 58.9 µM in assay [4]; 18.6 µM in assay [5]; 14.3 µM in assay [6]. Also, the TGI in [7] was 34.7 µM.
Consider `O=C(c1ccccc1)c1ccc2cccc(O)c2n1`, for which the TGI in [1] is greater than 100 µM; in assay [2] it was greater than 100 µM; in [3] it was greater than 100 µM; in assay [4], greater than 100 µM; in [6], 39.1 µM; in assay [8], greater than 100 µM. The compound also showed a total growth inhibition concentration (TGI) in assay [7] greater than 100 µM.
As for `CC(C)(C)c1ccc(Oc2ccc(C#N)c(C#N)c2)c(C(C)(C)C)c1`, the TGI in [1] is greater than 100 µM; in assay [2], greater than 100 µM; in assay [3], greater than 100 µM; in [4], greater than 100 µM; in assay [5], greater than 100 µM; in assay [6] it was greater than 52.2 µM. Besides, the results for the TGI in [8] and in [7] were 28.5 µM and 35.4 µM, respectively.
Take `Cc1ccc(C)c(NC(=O)CC2C(=O)Nc3ccccc3S2(=O)=O)c1` (configuration not stated): the TGI in assay [1], in assay [2], in [3], in assay [5], in assay [6] and in assay [8] was greater than 100 µM throughout. For the same compound, in assay [7], the TGI was found to be 61.6 µM.
`Cc1cc(N(CCC#N)CCC#N)ccc1N=Nc1ccccc1[N+](=O)[O-]`: the TGI in assay [2], in [3], in assay [4], in assay [5], in assay [6] and in assay [8] was greater than 100 µM each time. This compound also had a TGI in [7] of 80.9 µM.
With `Brc1nc2c3ccccc3ncn2c1Br`, the TGI in assay [1] is greater than 100 µM; in assay [2] it was greater than 100 µM; in [3], greater than 100 µM; in [4], 47.8 µM; in [5], greater than 100 µM; in assay [6] it was 98.4 µM. The TGI in assay [8] was greater than 100 µM; in [7], 46.9 µM.
Take `O=C(O)C1CCCN1Cc1c[nH]c2ccccc12` (configuration not stated): in assay [9], the TGI was greater than 100 µM.
One may read the GI50 as the concentration that inhibits growth by half. As to `Cc1c2cc[n+](C)cc2c(C)c2c1[nH]c1ccc(OC(C)C)cc12`, the TGI in [1] is 44.3 µM and 39.8 µM; in assay [3], greater than 100 µM; in assay [4], 27.1 µM and 35.4 µM; in assay [5], 5.04 µM and 11.3 µM; in assay [8], 10.9 µM and 12.5 µM. In addition, in assay [3], the GI50 was 1.91 µM and 6.02 µM.
For `COc1cccc(/C=C\c2cc(OC)c(OC)c(OC)c2)c1`, the TGI in [1] is 1.56 µM; in assay [2], greater than 100 µM; in [3] it was greater than 100 µM; in assay [5], greater than 100 µM; in assay [6], 67.3 µM; in [8], 39.6 µM. In [7], this compound registered a TGI of 35.8 µM.
For the compound `COC(=O)[C@H](C)[C@H]1CC[C@@](C)([C@H]2CC3C(C)(C)[C@H]4CCC(C)=C[C@H]4C[C@@]3(C)O2)OO1` (some centres not stated), the TGI came out at 27.5 µM in assay [1]; 25.9 µM in [3]; 7.79 µM in [5]; 14.2 µM in assay [6]; 26.1 µM in [8]; 21.8 µM in assay [7].
For `CC1=CCP(C(F)(F)F)P(C(F)(F)F)C1` (configuration not stated), the TGI in assay [1], in assay [2], in assay [3], in assay [4], in assay [5] and in assay [6] was greater than 100 µM each time.
Take `Cc1ccc(C2=[N+]([O-])c3ccccc3C2=O)cc1`: the TGI in [1] is 98.6 µM; in assay [2], 51.7 µM; in assay [3], 57.2 µM; in assay [4], greater than 100 µM; in [5] it was 22.9 µM; in assay [6], 28.2 µM. In assay [7], this compound yielded a total growth inhibition concentration (TGI) of 17.8 µM.
Consider `COC1CCC2C(=O)CCCC2O1` (configuration not stated), for which the TGI in [1], in [2], in [3], in assay [4], in assay [5] and in assay [6] was greater than 100 µM throughout. In addition, the TGI in [8] and in [7] was greater than 100 µM throughout.
In assay [9], `O=C1CC2(CCCc3sccc32)C(=O)N1` (configuration not stated) yielded a TGI greater than 100 µM.
`CCCCCCC(O)C/C=C/CCCCCC/C(C(=O)OC)=C(/O)C(=O)OCC` (configuration not stated): the TGI in [2], in assay [3], in assay [4], in assay [5], in assay [6] and in assay [8] was greater than 100 µM each time. The compound further came in with a TGI in assay [7] greater than 100 µM.
`CC1/C=C/C=C/CC/C=C/C=C/C=C/C=C/C(OC2OC(C)C(O)C(N)C2O)CC2OC(CC(O)C(O)CCC(O)CC(O)CC(O)CC(=O)OC(C)C(C)C1O)CC(O)C2C(=O)O` (configuration not stated): in assay [9], the GI50 is 25.6 µg/mL (≈ 28.2 µM); the TGI is 31.8 µM and 46.7 µg/mL.
Regarding `O=C(Nc1ccccc1)O/N=C1/CCCC/C1=C\c1ccccc1`, the TGI in [1] came to 43.2 µM; in [2], 47.3 µM; in assay [3], 29.4 µM; in assay [4], 29.9 µM; in assay [5], 21.4 µM; in assay [6], 24.8 µM. In assay [8], the TGI amounted to 31.2 µM.
As to `CN(OC(=O)CC(=O)c1ccccc1)C(=O)Cc1ccccc1`, the TGI in [1], in assay [2], in assay [3], in [5] and in assay [6] was greater than 100 µM each time.
